Here are results for 1 compound from PMC6756013, “B591, a novel specific pan-PI3K inhibitor, preferentially targets cancer stem cells” (Oncogene, 2019).

Usually IC50 stands for the concentration that gives 50% inhibition.

Structures are written as SMILES.

One assay concerns MDA-MB-231 cells. As to the kind of experiment: Cell cycle analysis. It is filed as cell-based, human. The note with it: 24 h. The protocol:
MDA-MB-231 cells were seeded in six-well plates at a density of 4×10^5 cells per well. The next day, cells were treated with B591 (0, 2.5, 5, 10 μM) for 24 h. Then the cells were trypsinized, centrifuged at 300 g for 5 minutes and fixed in 1 ml of 70 % cold ethanol. After incubation at -20℃ overnight, the cells were collected by centrifugation at 500 g for 5 min and pellets were resuspended in 500 μl PBS containing 300 μg/ml of RNase (Sigma, MO, USA). After incubation at 37 ℃ for 30 min, the pellets were stained with 100 μg/ml of propidium iodine (Sigma, MO, USA) for 20 min. Cell cycle distribution was determined by flow cytometry (FACScaliber, Becton Dickinson).

Assay [1] relates to MDA-MB-231 and SUM-159PT monolayer and mammosphere cells. As to the kind of experiment: Proliferation inhibition of monolayer versus mammosphere cells. It is filed as cell-based, human. The protocol:
The proliferation inhibitory activities of B591 were compared between monolayer and mammosphere cells.
Cells were treated with indicated agents for 48 h, and cells were harvested and processed for apoptosis assay using the PE-Annexin V/7-AAD Apoptosis Detection Kit. d Representative flow cytometry plots of apoptosis inducing activity of B591 (10 μM) and paclitaxel (10 nM) on monolayer and mammosphere MDA-MB-231 cells. e B591 preferentially targeted CD44^high/CD24^low cells. Cells were treated with B591 or paclitaxel for 2 days. Following a 4-day recovery period, cells were co-stained with CD44 and CD24 antibodies and subjected to FACS analysis. Representative flow cytometry plots show the effect of B591 on CD44^high/CD24^low population in MDA-MB-231 cells in vitro. f B591 decreased mammosphere forming efficiency. Primary MDA-MB-231 mammospheres were treated with B591 or paclitaxel for 48 h. Results of the secondary mammosphere-formation assay are shown. Scale bar represents 40 μm. g B591 decreased the expression of CSC markers in MDA-MB-231 cells. Cells were treated with B591 or paclitaxel for 2 days. […] They label a gated population in plots with axes CD44 and CD24. / Panel E: DMSO is the vehicle control. Its printed value is included all the same.

In a further assay the target is T1, PI3Kγ (p110γ) (Homo sapiens, UniProt P48736).
T1 construct: purchased Promega
T1 sequence (P48736 whole entry): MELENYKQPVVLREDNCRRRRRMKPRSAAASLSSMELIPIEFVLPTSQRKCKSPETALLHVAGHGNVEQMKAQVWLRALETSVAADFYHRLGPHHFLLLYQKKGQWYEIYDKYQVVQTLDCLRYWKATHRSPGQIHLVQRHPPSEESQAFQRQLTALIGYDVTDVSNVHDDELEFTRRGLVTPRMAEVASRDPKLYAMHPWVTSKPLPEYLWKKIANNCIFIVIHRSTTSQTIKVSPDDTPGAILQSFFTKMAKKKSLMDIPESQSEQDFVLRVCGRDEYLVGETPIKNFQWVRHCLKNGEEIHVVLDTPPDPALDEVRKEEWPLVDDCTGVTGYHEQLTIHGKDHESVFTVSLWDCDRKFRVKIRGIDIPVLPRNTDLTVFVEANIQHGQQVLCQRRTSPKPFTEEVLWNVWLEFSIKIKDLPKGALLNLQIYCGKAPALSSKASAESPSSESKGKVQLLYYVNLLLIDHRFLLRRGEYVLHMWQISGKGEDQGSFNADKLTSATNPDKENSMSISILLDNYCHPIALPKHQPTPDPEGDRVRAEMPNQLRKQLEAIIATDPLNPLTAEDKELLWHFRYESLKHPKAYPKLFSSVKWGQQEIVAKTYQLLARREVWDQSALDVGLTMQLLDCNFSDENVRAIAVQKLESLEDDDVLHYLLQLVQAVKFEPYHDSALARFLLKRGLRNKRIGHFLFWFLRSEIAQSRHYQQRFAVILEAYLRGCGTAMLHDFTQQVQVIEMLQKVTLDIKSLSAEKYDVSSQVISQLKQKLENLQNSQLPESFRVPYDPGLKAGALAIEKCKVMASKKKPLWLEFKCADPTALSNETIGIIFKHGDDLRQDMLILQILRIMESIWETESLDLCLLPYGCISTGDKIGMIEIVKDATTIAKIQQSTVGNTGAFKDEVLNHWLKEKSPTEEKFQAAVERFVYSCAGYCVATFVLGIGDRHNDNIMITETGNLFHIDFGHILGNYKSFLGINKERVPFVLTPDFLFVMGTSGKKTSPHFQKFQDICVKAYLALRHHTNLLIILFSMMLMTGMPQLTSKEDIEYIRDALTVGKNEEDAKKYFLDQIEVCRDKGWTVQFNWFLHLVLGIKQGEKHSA
As to the kind of experiment: In vitro PI3K kinase assay (PI3-Kinase Activity ELISA). It is filed as biochemical. The note with it: incubated 30 min at room temperature. The method, then:
(§1) Purified PI3K Class I Lipid Kinase, including p110α/p85α, p110β/p85α, p110γ, and p110δ/p85α (Promega, Madison, WI, USA), was respectively incubated with B591 for 30 min at room temperature. The activity of PI3K was evaluated using a PI3-Kinase Activity ELISA kit (K-1000s, Echelon, Salt Lake City, UT, USA) according to the manufacture’s instructions. The assay is a competitive ELISA in which the signal is inversely proportional to the amount of PI(3,4,5)P3 produced. After the PI3-Kinase reactions are complete, reaction products are first mixed and incubated with a PI(3,4,5)P3 detector protein, then added to the PI(3,4,5)P3-coated microplate for competitive binding. A peroxidase-linked secondary detector and colorimetric detection is used to detect PI(3,4,5)P3 detector binding to the plate. The colorimetric signal is inversely proportional to the amount of PI(3,4,5)P3 produced by PI3-Kinase. The absorbance was measured at 450 nm with a Multilabel Reader (PerkinElmer, Waltham, MA, USA). ATP competition assays were executed with varying concentrations of ATP, and five concentrations of ATP were 5 μM, 25 μM, 50 μM, 100 μM, and 200 μM respectively. The IC50 values for inhibition of PI3Kβ by B591 were determined at indicated concentrations of ATP. In addition, B591 selectivity was tested against 39 kinases at Life Technologies.
(In an ELISA, binding on a coated surface is turned into a signal by an enzyme label.)

The target of a further assay is T2, PI3Kδ (p110δ/p85α) (Homo sapiens, UniProt O00329).
T2 construct: purchased Promega
T2 sequence (O00329 whole entry): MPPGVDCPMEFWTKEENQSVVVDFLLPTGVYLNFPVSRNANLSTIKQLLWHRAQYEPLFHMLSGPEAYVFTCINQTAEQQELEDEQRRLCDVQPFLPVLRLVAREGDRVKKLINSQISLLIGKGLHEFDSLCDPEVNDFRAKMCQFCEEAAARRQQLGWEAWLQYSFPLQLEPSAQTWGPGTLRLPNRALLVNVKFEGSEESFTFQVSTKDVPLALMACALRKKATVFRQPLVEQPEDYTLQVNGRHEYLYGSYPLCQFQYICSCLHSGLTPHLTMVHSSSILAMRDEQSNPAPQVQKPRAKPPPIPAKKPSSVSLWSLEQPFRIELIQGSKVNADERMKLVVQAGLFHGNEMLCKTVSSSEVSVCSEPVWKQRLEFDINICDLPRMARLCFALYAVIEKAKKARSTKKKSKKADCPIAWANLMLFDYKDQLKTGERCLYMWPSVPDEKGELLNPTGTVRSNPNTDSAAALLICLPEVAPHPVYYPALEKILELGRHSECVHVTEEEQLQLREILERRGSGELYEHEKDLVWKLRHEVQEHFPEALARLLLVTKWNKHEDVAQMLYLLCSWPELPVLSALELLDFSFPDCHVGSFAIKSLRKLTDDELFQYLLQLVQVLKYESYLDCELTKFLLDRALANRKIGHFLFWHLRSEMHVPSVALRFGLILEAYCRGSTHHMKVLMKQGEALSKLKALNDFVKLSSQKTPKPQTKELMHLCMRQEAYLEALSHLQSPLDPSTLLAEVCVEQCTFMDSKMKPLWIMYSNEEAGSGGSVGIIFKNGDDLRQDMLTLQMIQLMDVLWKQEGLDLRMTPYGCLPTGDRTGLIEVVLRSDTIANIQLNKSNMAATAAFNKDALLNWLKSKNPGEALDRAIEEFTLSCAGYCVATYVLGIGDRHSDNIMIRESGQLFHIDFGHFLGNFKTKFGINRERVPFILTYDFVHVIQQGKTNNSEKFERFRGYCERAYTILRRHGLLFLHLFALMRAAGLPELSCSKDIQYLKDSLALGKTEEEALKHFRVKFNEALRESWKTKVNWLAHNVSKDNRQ
T2 sequence (P27986 whole entry partner): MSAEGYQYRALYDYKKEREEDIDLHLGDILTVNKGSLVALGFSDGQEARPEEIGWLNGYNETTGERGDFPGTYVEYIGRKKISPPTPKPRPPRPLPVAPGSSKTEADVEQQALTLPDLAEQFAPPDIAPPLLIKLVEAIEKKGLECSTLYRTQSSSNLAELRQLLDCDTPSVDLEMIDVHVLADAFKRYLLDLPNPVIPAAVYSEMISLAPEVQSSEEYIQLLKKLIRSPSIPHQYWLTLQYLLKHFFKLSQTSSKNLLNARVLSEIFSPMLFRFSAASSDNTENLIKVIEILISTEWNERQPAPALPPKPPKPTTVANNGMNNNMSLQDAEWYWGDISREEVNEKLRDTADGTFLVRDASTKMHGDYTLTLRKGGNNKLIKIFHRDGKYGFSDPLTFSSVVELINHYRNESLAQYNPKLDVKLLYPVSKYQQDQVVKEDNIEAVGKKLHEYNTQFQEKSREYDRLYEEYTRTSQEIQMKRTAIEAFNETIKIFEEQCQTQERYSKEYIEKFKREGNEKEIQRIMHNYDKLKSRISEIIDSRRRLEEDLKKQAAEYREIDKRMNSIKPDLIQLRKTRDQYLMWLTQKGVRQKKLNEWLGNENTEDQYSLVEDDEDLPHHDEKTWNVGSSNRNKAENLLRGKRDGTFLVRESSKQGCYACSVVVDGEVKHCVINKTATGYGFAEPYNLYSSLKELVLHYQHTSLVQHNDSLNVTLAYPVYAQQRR
The assay is described as above. The note with it: incubated 30 min at room temperature. It is filed as biochemical. The protocol: as §1

A further assay addresses T3, PI3Kα (p110α/p85α) (Homo sapiens, UniProt P42336).
T3 construct: purchased Promega
The assay is described as above. It is filed as biochemical. The note with it: incubated 30 min at room temperature. The protocol:
as §1

For a further assay, the target named is T4, PI3Kβ (p110β/p85α) (Homo sapiens, UniProt P42338).
T4 construct: purchased Promega
T4 sequence (P42338 whole entry): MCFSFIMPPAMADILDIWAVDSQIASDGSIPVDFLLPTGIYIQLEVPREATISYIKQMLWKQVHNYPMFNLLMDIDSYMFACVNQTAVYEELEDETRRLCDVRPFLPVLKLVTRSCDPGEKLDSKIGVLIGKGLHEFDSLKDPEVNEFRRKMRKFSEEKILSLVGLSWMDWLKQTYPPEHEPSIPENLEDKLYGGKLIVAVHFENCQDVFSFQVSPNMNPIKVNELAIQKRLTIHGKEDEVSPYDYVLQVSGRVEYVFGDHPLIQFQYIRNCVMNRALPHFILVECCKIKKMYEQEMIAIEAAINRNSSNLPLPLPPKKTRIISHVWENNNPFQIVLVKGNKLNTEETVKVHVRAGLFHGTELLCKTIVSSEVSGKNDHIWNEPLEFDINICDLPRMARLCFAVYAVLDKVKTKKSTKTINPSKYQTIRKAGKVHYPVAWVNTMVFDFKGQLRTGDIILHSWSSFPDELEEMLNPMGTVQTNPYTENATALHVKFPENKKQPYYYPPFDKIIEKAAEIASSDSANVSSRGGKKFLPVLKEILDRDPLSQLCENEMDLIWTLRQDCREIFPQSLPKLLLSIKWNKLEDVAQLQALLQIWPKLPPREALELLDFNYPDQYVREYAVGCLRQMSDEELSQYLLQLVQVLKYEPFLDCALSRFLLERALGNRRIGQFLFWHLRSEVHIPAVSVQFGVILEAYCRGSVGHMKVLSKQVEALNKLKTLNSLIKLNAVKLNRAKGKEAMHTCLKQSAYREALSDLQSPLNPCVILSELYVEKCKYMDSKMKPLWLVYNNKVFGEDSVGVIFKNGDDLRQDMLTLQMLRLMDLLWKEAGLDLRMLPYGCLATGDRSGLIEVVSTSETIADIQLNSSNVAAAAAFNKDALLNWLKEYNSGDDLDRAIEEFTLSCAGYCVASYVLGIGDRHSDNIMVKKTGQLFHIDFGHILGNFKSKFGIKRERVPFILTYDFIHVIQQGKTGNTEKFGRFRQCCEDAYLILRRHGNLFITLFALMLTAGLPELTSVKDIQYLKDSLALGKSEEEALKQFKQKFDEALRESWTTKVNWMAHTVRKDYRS
T4 sequence (P27986 whole entry partner): as the sequence (P27986 whole entry partner) above
Described as above. It is filed as biochemical. The method, then: as §1

T3 sequence (P42336 whole entry): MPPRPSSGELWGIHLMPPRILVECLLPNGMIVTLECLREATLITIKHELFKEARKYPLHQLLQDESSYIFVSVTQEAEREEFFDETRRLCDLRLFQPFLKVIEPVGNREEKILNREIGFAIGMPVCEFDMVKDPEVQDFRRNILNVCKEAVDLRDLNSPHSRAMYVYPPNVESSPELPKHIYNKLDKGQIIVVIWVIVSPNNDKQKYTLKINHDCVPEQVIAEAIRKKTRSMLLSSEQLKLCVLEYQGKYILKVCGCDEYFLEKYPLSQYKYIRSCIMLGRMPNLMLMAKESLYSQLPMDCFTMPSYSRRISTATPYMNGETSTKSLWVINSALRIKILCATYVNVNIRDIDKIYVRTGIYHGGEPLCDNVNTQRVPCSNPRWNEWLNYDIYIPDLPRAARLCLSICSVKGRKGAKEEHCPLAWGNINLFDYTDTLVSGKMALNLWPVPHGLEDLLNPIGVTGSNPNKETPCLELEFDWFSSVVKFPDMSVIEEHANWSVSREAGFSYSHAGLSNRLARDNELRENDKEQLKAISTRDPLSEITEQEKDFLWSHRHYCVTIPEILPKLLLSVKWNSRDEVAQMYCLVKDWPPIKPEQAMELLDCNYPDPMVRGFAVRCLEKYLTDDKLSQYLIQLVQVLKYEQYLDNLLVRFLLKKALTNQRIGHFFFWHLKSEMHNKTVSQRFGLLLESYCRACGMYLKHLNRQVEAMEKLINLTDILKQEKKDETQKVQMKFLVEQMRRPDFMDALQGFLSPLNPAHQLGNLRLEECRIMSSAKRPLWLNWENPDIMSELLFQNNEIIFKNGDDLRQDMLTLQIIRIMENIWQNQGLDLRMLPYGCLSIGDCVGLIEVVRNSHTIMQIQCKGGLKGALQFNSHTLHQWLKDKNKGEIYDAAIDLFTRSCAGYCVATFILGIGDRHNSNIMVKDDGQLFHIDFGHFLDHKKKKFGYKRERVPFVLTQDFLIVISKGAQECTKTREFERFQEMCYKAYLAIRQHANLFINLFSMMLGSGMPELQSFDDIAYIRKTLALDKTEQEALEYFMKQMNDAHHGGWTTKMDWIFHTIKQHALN
T3 sequence (P27986 whole entry partner): as the sequence (P27986 whole entry partner) above

Regarding `Cc1cc2c(cc1C)[n+](Cc1ccccc1Br)cn2Cc1ccc2c(c1)CCO2.[Br-]` [B591, 3-(2-bromobenzyl)-1-((2,3-dihydrobenzofuran-5-yl)methyl) -5,6-dimethyl-1H-benzo[d]imidazol-3-ium bromide], the Cell cycle distribution result with MDA-MB-231 cells was “effectively arrested cells in G0/G1 phase”. In assay [1], the “Proliferation inhibitory activity, mammosphere versus monolayer cells” value is “more potent against mammosphere cells”. The IC50 was 107 ± 70 nM against PI3Kγ (p110γ); 1580 ± 160 nM on PI3Kδ (p110δ/p85α); 1300 ± 270 nM against PI3Kα (p110α/p85α); 364 ± 130 nM against PI3Kβ (p110β/p85α) (PI3-Kinase Activity ELISA, incubated 30 min at room temperature). Further, the “Mode of inhibition (IC50 for PI3Kβ at various concentrations of ATP)” value at PI3Kβ (p110β/p85α) (ATP 5, 25, 50, 100 and 200 μM) is listed as “ATP-competitive inhibitor”.
